The values below come from patent US20120101015A1, “ANTI-WEAR AGENTS WITH A REDUCED NEUROTOXICITY” (priority 2009, published 2012).

Like-named read-outs stand apart in the source and are kept apart here.

The target of data set [1] is human butyrylcholine esterase (Homo sapiens, UniProt P06276). It counts as biochemical. How it is done: A more sensitive assay was used in order to discriminate alkylphenyl diphenyl phosphates, di-alkylphenyl phenyl phosphates and tri-alkylphenyl phosphates based on their potential ability to inhibit BChE.
The assay was essentially the same as that described in Example 2 except that the triaryl phosphate solution to be tested was prepared in pure ethanol instead of in sodium phosphate buffer.
Some experiments were performed with rat liver microsomes (RLM) because human liver microsomes (HLM) were not available in sufficient quantity. However, human butyrylcholine esterase was used in all assays.
Briefly, base stock triarylphosphate solutions were prepared by dissolution or dilution of a triarylphosphate of interest in ethanol at 2.5 mg/ml. Dilution solutions were then prepared in buffer containing 10% ethanol. 7.5 μl of each dilution solution comprising a triarylphosphate was added to a liver microsome mix in phosphate buffer to give a solution comprising microsomes, NADPH (1 mM) and triarylphosphate at a concentration ranging from 0.20 to 25 μg/ml. This pre-incubation was done at room temperature for 20-25 minutes. After incubation, 7.5 μl of BChE solution (at 9.75 μg/ml in phosphate buffer) was added to the resulting microsome-containing solution. The resulting solution was incubated for 20-25 minutes. The BChE residual activity was then measured as described in Example 2 hereabove.
For each triarylphosphates, the percentages of residual BChE activity were determined for triarylphosphate final concentrations ranging from 0.3 μg/ml to 20 μg/ml.
The Durad 125® combination was used as positive control. For reminder, Durad 125 consists in a mixture of meta and para isomers of tricresyl phosphate.

In data set [2] the target is human butyrylcholinesterase (BChE) (Homo sapiens, UniProt P06276). The data set can be described thus: In vitro BChE activity assay after incubation with human liver microsomes and NADPH (Example 2, stock in phosphate buffer). It is filed as biochemical. The settings on record: for BChE residual activity percentage: triaryl phosphate 25 μg/ml, BChE reference activity 3.76 nmol DTNB/min.
Method: As part of the study, the neurotoxicity of triaryl phosphates and combinations thereof was evaluated through an in vitro test using a model enzyme of esterase: the human butyrylcholinesterase. The human butyrylcholinesterase (BChE), or plasma cholinesterase, has an enzyme activity profile close to that of human acetylcholinesterase.
In this assay, triarylphosphates of interest are first incubated with human liver microsomes in the presence of NADPH to enable the production of potential metabolites. The incubation with microsomes is then followed by incubation with purified human BChE in the context of a micro-BChE activity assay.
This in vitro assay thus reproduces the in vivo metabolization of triaryl phosphates in the liver and enables to evaluate the anti-esterase activity of the resulting metabolites.
Six individual preparations of the same amount were collected to form a homogeneous pool representing the variability amongst the individuals, using a Potter-Elvehem Glass-Teflon homogenizer, with a 5 run-procedure in ice.
Mixture samples of 1.7 ml were collected in polypropylene centrifuge tubes, and thereafter stored at −80° C. The measured liver microsome content was 7.83 mg/ml.
A 250 μg/ml triaryl phosphate solution was prepared in a 50 mM sodium phosphate buffer at pH 7.4 by vigorously stirring in a vortex mixer for one minute. […]
The BChE activity is then measured according to the protocol defined by Ellman and al, (Ellman and al., 1961, Biochem Pharmacol, 7: 88-95), modified for use in micro-titration format. […]
Monitoring the TNB formation is effected by measuring the absorbance at 405 nm for 4 minutes at 23° C. with a microplate optical reader such as SpectraMax Plus spectrophotometer.
The BChE residual activity in the presence of triaryl phosphate is then expressed depending on the BChE reference activity, that is to say depending on the BChE activity measured in the presence of liver microsomes and NADPH and in the absence of triaryl phosphate (reference experiment).

The subject of data set [3] is hens. The settings on record: oral, Weiner and Jortner 1999; cited from earlier work.
For data set [4], the target named is plasma BChE (Rattus norvegicus, UniProt Q9JKC1). The settings on record: oral dose of 240 mg/kg, 24 hours post-dosing.
Method: The activity of BChE in the plasma of rats was determined following oral administration of 240, 120, 60 and 10 mg/kg of body weight of Durad 125 or tri-para-tert-butyl phosphate at 6 hours postdosing and 24 hours postdosing. Each dose solution was prepared in a corn oil vehicle and administered by gavage. Control animals were administered an appropriate amount of corn oil (witout any triarylphosphate compounds). All animals were fasted for approximately 16 h prior to administration of the dose containing Durad 125, tri-p-t-butylphenyl phosphate or only corn oil.
Three to six animals per time point and per dose were humanely anesthetized, and sacrificed. For each animal, the blood was collected and the plasma was separated by centrifugation. The plasma samples were then stored at −80° C. until performing the BChE activity assay.
The BChE activity assay was performed as previously described according to Ellman et al (Biochem. Pharmacol. 7, 88-95).
Setting [5] is: rat liver microsomes (RLM), concentrations 1 μg/ml to 20 μg/ml.
[6] abbreviates: human liver microsomes (HLM), concentrations 1 μg/ml to 20 μg/ml.
Setting [7] is: human liver microsomes, up to 20 μg/ml (FIG. 3a).

human butyrylcholinesterase (BChE), sequence (P06276 29-602): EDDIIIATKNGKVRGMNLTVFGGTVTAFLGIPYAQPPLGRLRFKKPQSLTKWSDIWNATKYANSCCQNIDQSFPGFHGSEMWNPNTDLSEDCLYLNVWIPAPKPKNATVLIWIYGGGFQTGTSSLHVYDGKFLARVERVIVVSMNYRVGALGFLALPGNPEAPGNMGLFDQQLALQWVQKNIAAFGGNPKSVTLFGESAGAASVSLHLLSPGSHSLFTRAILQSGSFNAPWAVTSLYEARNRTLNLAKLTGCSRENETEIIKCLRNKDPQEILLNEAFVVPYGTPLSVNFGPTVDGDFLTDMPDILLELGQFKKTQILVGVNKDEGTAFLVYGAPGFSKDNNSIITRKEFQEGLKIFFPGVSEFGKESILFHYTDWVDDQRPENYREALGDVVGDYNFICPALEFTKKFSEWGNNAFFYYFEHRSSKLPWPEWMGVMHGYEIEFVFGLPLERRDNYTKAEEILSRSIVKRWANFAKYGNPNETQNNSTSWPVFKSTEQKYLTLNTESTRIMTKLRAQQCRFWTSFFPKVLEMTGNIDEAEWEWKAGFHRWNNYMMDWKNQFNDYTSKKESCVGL
human butyrylcholine esterase, sequence (P06276 29-602): as above
plasma BChE, sequence (Q9JKC1 24-597): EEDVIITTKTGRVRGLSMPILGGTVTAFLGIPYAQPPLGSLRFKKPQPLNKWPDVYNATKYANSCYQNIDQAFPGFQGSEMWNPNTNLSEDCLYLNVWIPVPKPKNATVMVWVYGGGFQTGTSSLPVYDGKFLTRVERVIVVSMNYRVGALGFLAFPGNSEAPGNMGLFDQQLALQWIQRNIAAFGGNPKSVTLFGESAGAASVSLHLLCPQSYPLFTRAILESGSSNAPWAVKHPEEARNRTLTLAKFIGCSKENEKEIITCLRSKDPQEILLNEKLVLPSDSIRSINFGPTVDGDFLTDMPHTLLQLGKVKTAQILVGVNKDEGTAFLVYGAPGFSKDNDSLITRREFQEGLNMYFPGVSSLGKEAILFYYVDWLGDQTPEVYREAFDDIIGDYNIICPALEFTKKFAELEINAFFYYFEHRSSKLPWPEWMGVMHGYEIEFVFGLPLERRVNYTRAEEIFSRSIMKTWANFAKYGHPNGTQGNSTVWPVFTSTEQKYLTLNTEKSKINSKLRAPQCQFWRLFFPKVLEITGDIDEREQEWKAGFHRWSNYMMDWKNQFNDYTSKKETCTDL

Take `CC(C)c1ccc(OP(=O)(Oc2ccccc2)Oc2ccc(C(C)C)cc2)cc1` [di-para-isopropylphenyl phenylphosphate]: the “Minimal BChE residual activity” value in data set [1] (setting [5]) was 76.5%.
Regarding `Cc1ccccc1OP(=O)(Oc1ccccc1C)Oc1ccccc1C` [C6, tri-ortho-cresyl phosphate], the “BChE residual activity percentage” value in data set [2] is reported as “very low”. Also, the neurotoxicity entry in data set [3] was “highly neurotoxicity”.
As for `CC(C)c1ccccc1OP(=O)(Oc1ccccc1C(C)C)Oc1ccccc1C(C)C` [P3, Tri-ortho-isopropylphenyl phosphate], the “Minimal BChE residual activity” value in data set [1] was 72.6%.
Still for that read-out and setting: the same measure for `CC(C)(C)c1ccccc1OP(=O)(Oc1ccccc1C(C)(C)C)Oc1ccccc1C(C)(C)C` [tri-ortho-tert-butylphenyl phosphate]: over 100%.
Turning to `CC(C)(C)c1cccc(OP(=O)(Oc2cccc(C(C)(C)C)c2)Oc2cccc(C(C)(C)C)c2)c1` [tri-meta-tert-butylphenyl phosphate], in data set [1], the “Minimal BChE residual activity” value was over 100%.
Turning to `CC(C)(C)c1ccc(OP(=O)(Oc2ccc(C(C)(C)C)cc2)Oc2ccc(C(C)(C)C)cc2)cc1` [P1, Tri-para-tert-butylphenyl phosphate], the “Minimal BChE residual activity” value in data set [1] (setting [6]) was 90%; in data set [1] (setting [5]) it was over 100%. Further, in data set [1] (setting [7]), the “inhibition of BChE” value was “did not induce a significant inhibition of BChE”. Also, the “inhibition of plasma BChE” value in data set [4] is reported as “does not induce BChE inhibition”.
On to `O=P(Oc1ccccc1)(Oc1ccccc1)Oc1ccccc1` [C7, tri-phenylphosphate], for which, in data set [2], the “BChE inhibiting potential after incubation” value was “non negligible inhibiting potential” and the “BChE residual activity percentage” value is on record as 44.8 +/− 10.4%. The neurotoxicity entry in data set [3] was “non neurotoxic or poorly neurotoxic”.
Consider 1-methylnonylphenyl diphenyl phosphate, for which the “Minimal BChE residual activity” value in data set [1] (setting [5]) was 5.2%.
In the case of `CC(C)(C)c1ccc(OP(=O)(Oc2ccccc2)Oc2ccccc2)cc1` [para-tert-butylphenyl diphenyl phosphate], the “Minimal BChE residual activity” value in data set [1] (setting [6]) stood at 44.9%. In addition, the “inhibition of BChE” value in data set [1] (human liver microsomes, concentrations higher than 5 μg/ml (FIG. 3a)) was “at least 40%”.
For the compound `CC(C)(C)c1ccc(OP(=O)(Oc2ccccc2)Oc2ccc(C(C)(C)C)cc2)cc1` [di-para-tert-butylphenyl phenylphosphate], in data set [1] (setting [6]), the “Minimal BChE residual activity” value worked out at 85.2%. Also, the “inhibition of BChE” value in data set [1] (setting [7]) is “did not induce a significant inhibition of BChE”.
As for `CC(C)c1ccc(OP(=O)(Oc2ccc(C(C)C)cc2)Oc2ccc(C(C)C)cc2)cc1` [P2, Tri-para-isopropylphenyl phosphate], in data set [1], the “Minimal BChE residual activity” value is recorded as over 100% and the “inhibition of BChE” value is listed as “did not inhibit BChE”.
As for dodecylphenyl diphenyl phosphate, in data set [1] (setting [5]), the “Minimal BChE residual activity” value is 16%.
